According to publication PMC8080777, “Discovery, optimization, and evaluation of non-bile acid FXR/TGR5 dual agonists” (Scientific Reports, 2021):

System: GLP-1
Experiment: In vivo GLP-1 secretion after glucose challenge
Design: species or system C57 mice
Details: for Plasma GLP-1 levels: single oral 100 mg/kg, overnight-fasted C57 mice, 2 g/kg glucose one hour later, blood 15 min after challenge
Procedure: (§1) Measurement of GLP-1 secretion: To measure plasma GLP-1 levels, 100 mg/kg of compounds 20p and 20q were administered orally to overnight-fasted C57 mice (n = 5 animals/group). One hour later, all mice were challenged with 2 g/kg glucose, and blood samples were collected after 15 min of glucose challenge test. Plasma GLP-1 levels were measured using the GLP-1 ELISA Kit Wako, High Sensitive (FUJIFILM Wako Pure Chemical Corporation, Osaka city, Osaka, Japan)[56].
Amersham Place Little Chalfont Buckinghamshire, HP7 9NA UK), and cDNA was synthesized using ReverTra Ace qPCR RT Master Mix (Toyobo Co., Ltd., Osaka City, Osaka, Japan). Real-time PCR was performed using a CFX96 Touch Real-Time PCR Analysis System (CFX Manager, Bio-Rad, 1000 Alfred Nobel Drive, Hercules, CA, USA), and the mRNA expression levels of SHP and CYP7A1, the target gene s of FXR, were measured using the intercalator […]
In vivo assay protocol (GLP-1)
as §1, with “overnight -fasted” for “overnight-fasted”, “(n=5” for “(n = 5”, “Japan)[56].” left out
In vivo assay protocol (OGTT test)
To measure blood glucose levels, 100 mg/kg of test compounds 20p and 20q or vehicle were administered orally to overnight-fasted C57 mice (n=5 mice/group, control; n=10). One hour later, all mice were challenged with 2 g/kg glucose, and blood samples were collected after 15 min of glucose loading. The blood glucose levels were measured using LabAssay Glucose (FUJIFILM Wako Pure Chemical Corporation, Osaka City, Osaka, Japan).5
In vivo in-house animal guidelines
Study protocols were designed and refined by taking reduction of animal use into consideration. […]

SMILES	Plasma GLP-1 levels	Serum GLP-1 (single dose, wild-type mice)
COc1ccc(C23CCC(CN(C(=O)c4ccncc4C)c4cc(Cl)cc(Cl)c4)(CC2)CC3)cc1C#N [Compound 20q]	significantly increased the plasma levels of GLP-1	
COC(=O)/C=C/c1cccc(N(Cc2ccc(-c3ccc(N(C)C)cc3)cc2)C(=O)C2CCCCC2)c1 [Compound 7, Fexaramine, reference compound]		did not increase serum GLP-1
COc1cc(Cl)cc(N(CC23CCC(c4ccc(OC)c(C#N)c4)(CC2)CC3)C(=O)c2ccncc2C)c1 [Compound 20p]	significantly increased the plasma levels of GLP-1	
